Test systems include SK-OV-3 ovarian; RXF 393 renal; SW-620 colon; OVCAR-5 ovarian; MDA-MB-435; HCT-15 colon; SNB-75 CNS; 786-0 renal; MOLT-4 leukemia; OVCAR-3 ovarian.
Common to all, as to test: NCI anticancer screen, dose series, 48 h

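Dose response: 5 concentrations. Exposure: 48 h. Format: 96-well plates. Endpoint: linear interpolation; highest concentration if not reached. At the GI50, growth is halved. The concentration for full growth arrest is given as TGI.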 *1 amine or outer side, *2 acyl side, *3 side chain or, on linkers, in order; H or OH if unused. Where a SMILES comes first, the peptide text is derived from it. Bridges are numbered along the chain shown (N, C = ends). Roman numbers before positions name the chains, in order. [ ]: non-standard residue; d: D form. ξ: configuration not given here. X54 = N=C(N)NCCC[C@@H](NC(=N)CCCCCCC(=N)N[C@H](CCCNC(=N)N)C(=O)[*:2])C(=O)[*:1]; dIgl = N[C@@H](C(=O)O)C1Cc2ccccc2C1; Hyp = O=C(O)[C@@H]1C[C@@H](O)CN1; ξIgl = NC(C(=O)O)C1Cc2ccccc2C1; ξOic = O=C(O)C1CC2CCCCC2N1; ξR = N=C(N)NCCCC(N)C(=O)O; ξP = O=C(O)C1CCCN1; ξS = NC(CO)C(=O)O

TGI and GI50 data for 19 molecules are collected here from PubChem BioAssay (NCI).

With `N#Cc1c(N)oc(-c2ccc([N+](=O)[O-])cc2)c1C#N`, the TGI in the test on SK-OV-3 ovarian is more than 100 µM; in the test on RXF 393 renal it was more than 100 µM; in the test on SW-620 colon, more than 100 µM; in the test with OVCAR-5 ovarian it was more than 100 µM; in the test with MDA-MB-435 it was more than 100 µM; with HCT-15 colon it was 53.1 µM. The TGI with SNB-75 CNS was 47.1 µM; in the test with 786-0 renal, more than 100 µM.
In the case of `O=c1ccc2ccc(CBr)cc2o1`, the TGI was 3.47 µM in the test on RXF 393 renal; 3.2 µM in the test on SW-620 colon; 3.29 µM with OVCAR-5 ovarian; 10.4 µM in the test on MDA-MB-435; 3.45 µM with HCT-15 colon; more than 100 µM in the test on SNB-75 CNS. The TGI in the test on MOLT-4 leukemia amounted to 5.98 µM.
In the case of `CN1CCN(C(=O)CCC(=O)Nc2cc3c(c4ccccc24)-c2ccc4ccccc4c2C3)CC1`, the TGI with SK-OV-3 ovarian came to 3.09 µM; in the test with RXF 393 renal it was 3.45 µM; in the test on OVCAR-3 ovarian, 3.22 µM; with OVCAR-5 ovarian it was 3.15 µM; in the test with MDA-MB-435 it was 3.02 µM; in the test on HCT-15 colon, 3.68 µM. In addition, in the test with 786-0 renal, the TGI was determined as 3.13 µM.
As to `N=C(N)NCCCC(NC(=O)C1CC2CCCCC2N1C(=O)[C@H](NC(=O)C(CO)NC(=O)C(NC(=O)CNC(=O)[C@@H]1C[C@@H](O)CN1C(=O)C1CCCN1C(=O)C(CCCNC(=N)N)NC(=O)[C@@H](CCCNC(=N)N)NC(=N)CCCCCCC(=N)N[C@H](CCCNC(=N)N)C(=O)NC(CCCNC(=N)N)C(=O)N1CCCC1C(=O)N1C[C@H](O)C[C@H]1C(=O)NCC(=O)NC(C(=O)NC(CO)C(=O)N[C@@H](C(=O)N1C(C(=O)NC(CCCNC(=N)N)C(=O)O)CC2CCCCC21)C1Cc2ccccc2C1)C1Cc2ccccc2C1)C1Cc2ccccc2C1)C1Cc2ccccc2C1)C(=O)O` (some centres not stated) (I: [ξR][ξP][Hyp]G[ξIgl][ξS][dIgl][ξOic][ξR]-OH / II: [ξR][ξP][Hyp]G[ξIgl][ξS][dIgl][ξOic][ξR]-OH; linker I:N-II:N via X54), the TGI in the test with SK-OV-3 ovarian is 3.74 µM; in the test on RXF 393 renal, 3.02 µM; in the test with OVCAR-3 ovarian it was 3.4 µM; in the test on SW-620 colon, 6.35 µM; in the test on OVCAR-5 ovarian it was more than 10 µM; in the test with MDA-MB-435, 4.18 µM. Further, the TGI amounted to 4.64 µM in the test on HCT-15 colon, 2.89 µM in the test with MOLT-4 leukemia and 5.07 µM in the test with 786-0 renal.
As for `Fc1ccc(-c2sc(-c3ccsc3)cc2Cc2ccsc2)cc1`, the TGI with SK-OV-3 ovarian, in the test on RXF 393 renal, with SW-620 colon, with MDA-MB-435, in the test with HCT-15 colon and in the test with SNB-75 CNS was more than 10 µM throughout. The TGI in the test on MOLT-4 leukemia and in the test on 786-0 renal was more than 10 µM in each case.
For `Cc1ccc(Cc2cc(N3CCN(c4cccc(Cl)c4)CC3)nnc2C)cc1`, the TGI in the test on SK-OV-3 ovarian, in the test on RXF 393 renal, in the test with OVCAR-3 ovarian, in the test with SW-620 colon, with OVCAR-5 ovarian and with MDA-MB-435 was more than 100 µM in each case. The TGI in the test with HCT-15 colon, with SNB-75 CNS and in the test on 786-0 renal was more than 100 µM each time.
As to `COC(=O)c1c(O)ccc2c1c1cc3ccccc3cc1n2Cc1cc(OC)cc(OC)c1`, the TGI was more than 26.5 µM in the test on RXF 393 renal; 2.45 µM in the test on OVCAR-3 ovarian; more than 100 µM with SW-620 colon; more than 100 µM with OVCAR-5 ovarian; 1.86 µM with MDA-MB-435; more than 100 µM in the test on HCT-15 colon. Further, the TGI is 8.94 µM with SNB-75 CNS, more than 100 µM with MOLT-4 leukemia and more than 100 µM with 786-0 renal.
In the case of `CC(C)=CC1C(C(=O)Oc2ccccc2C(C)C)C1(C)C` (configuration not stated), the TGI with SK-OV-3 ovarian was more than 100 µM; with RXF 393 renal it was 33.5 µM; in the test on OVCAR-3 ovarian, 34.6 µM; in the test with SW-620 colon, 66 µM; in the test with OVCAR-5 ovarian, 48.8 µM; in the test on MDA-MB-435 it was more than 100 µM. In addition, the figures for the TGI with HCT-15 colon, in the test with SNB-75 CNS and in the test on 786-0 renal were 53.1 µM, 62 µM and 42.5 µM, respectively.
Consider `COc1ccc2c(c1)N(Cc1ccc(Cl)cc1)CCC2N1CCCC1=O` (configuration not stated), for which the GI50 in the test with RXF 393 renal was 2.77 µM; in the test with OVCAR-3 ovarian, 4.42 µM; with SW-620 colon, 6.48 µM; with OVCAR-5 ovarian it was 6.6 µM; in the test on MDA-MB-435 it was 3.77 µM; in the test with HCT-15 colon, 4 µM. Also, the values for the GI50 with SNB-75 CNS and in the test on MOLT-4 leukemia were 3.22 µM and 4.9 µM, respectively. For the same molecule, the TGI was 10.9 µM in the test with RXF 393 renal; more than 100 µM with OVCAR-3 ovarian; more than 100 µM with SW-620 colon; more than 100 µM with OVCAR-5 ovarian; 15 µM with MDA-MB-435; more than 100 µM in the test on HCT-15 colon. The TGI in the test on SNB-75 CNS was found to be 35.8 µM; with MOLT-4 leukemia, 24.6 µM.
Consider `CC(=O)O[C@H]1C(=O)[C@@]2(C)[C@H]([C@H](OC(=O)c3ccccc3)[C@]3(O)C[C@H](OC(=O)[C@H](O)[C@@H](NC(=O)c4ccccc4)c4ccc5ccccc5c4)C(C)=C1C3(C)C)[C@]1(OC(C)=O)CO[C@@H]1C[C@@H]2O`, for which the TGI with SK-OV-3 ovarian is 0.836 µM; in the test on RXF 393 renal, 1.77 µM; with SW-620 colon, more than 50 µM; in the test with OVCAR-5 ovarian, 2 µM; with MDA-MB-435, 0.0238 µM; with HCT-15 colon it was 8.4 µM. In addition, the TGI in the test with SNB-75 CNS was determined as 2.15 µM; in the test with MOLT-4 leukemia it was 1.09 µM; in the test on 786-0 renal, 8.59 µM.
In the case of `Nc1nc(Cl)cc(OCC2(CO)CCCC2)n1`, the TGI in the test on RXF 393 renal, in the test with OVCAR-3 ovarian, in the test on SW-620 colon, in the test on OVCAR-5 ovarian, with MDA-MB-435 and in the test with HCT-15 colon was more than 100 µM throughout. Also, the TGI in the test with SNB-75 CNS, with MOLT-4 leukemia and in the test with 786-0 renal was more than 100 µM in each case.
Consider `CC(C)C(Nc1ncnc2nc[nH]c12)C(=O)O` (configuration not stated), for which the TGI in the test with SK-OV-3 ovarian, in the test on RXF 393 renal, in the test on OVCAR-3 ovarian, in the test on SW-620 colon, in the test on OVCAR-5 ovarian and in the test with MDA-MB-435 was more than 100 µM each time. Moreover, the TGI with HCT-15 colon, in the test on SNB-75 CNS and in the test with 786-0 renal was more than 100 µM each time.
Consider `CCOC(=O)c1[nH]cc(C)c1-c1cccn1-c1ccc(Cl)cc1[N+](=O)[O-]`, for which the TGI in the test with RXF 393 renal was 33.5 µM; in the test with OVCAR-3 ovarian, 29.5 µM; in the test with SW-620 colon, more than 100 µM; with OVCAR-5 ovarian, more than 100 µM; with MDA-MB-435 it was 56.6 µM; in the test on HCT-15 colon it was more than 100 µM. Also, the TGI with SNB-75 CNS was 56.1 µM; in the test with MOLT-4 leukemia, 46.4 µM; with 786-0 renal, 36.1 µM.
Take `CCC(C)(C)c1cc(O)c(C(C)(C)CC)cc1O`: the GI50 with SK-OV-3 ovarian is 4.41 µM; in the test with RXF 393 renal it was 2.69 µM; in the test with OVCAR-3 ovarian, 2.78 µM; in the test on SW-620 colon it was 2.35 µM; in the test on OVCAR-5 ovarian, 4.97 µM; in the test on MDA-MB-435 it was 2.62 µM. Moreover, the GI50 in the test with HCT-15 colon is 3.66 µM; in the test with SNB-75 CNS it was 3.14 µM. For the same molecule, the TGI with SK-OV-3 ovarian turned out to be 14.9 µM; in the test on RXF 393 renal, 7.25 µM; in the test with OVCAR-3 ovarian, 7.54 µM; in the test on SW-620 colon, 6.89 µM; with OVCAR-5 ovarian it was 17.6 µM; with MDA-MB-435, 10.9 µM. Moreover, the TGI in the test on HCT-15 colon was found to be 15.1 µM; in the test with SNB-75 CNS it was 16.5 µM.
For `O=C(CN1CCCC1=O)CS(=O)(=O)c1ccccc1`, the TGI in the test with RXF 393 renal, in the test on OVCAR-3 ovarian, with SW-620 colon, in the test on OVCAR-5 ovarian, with MDA-MB-435 and in the test with SNB-75 CNS was more than 100 µM each time. Besides, the TGI in the test with MOLT-4 leukemia and in the test with 786-0 renal was more than 100 µM in each case.
With `CCn1c2nc(=O)n(CCCCCCCCSC(c3ccccc3)(c3ccccc3)c3ccccc3)c(=O)c-2nc2ccccc21`, the TGI in the test on SK-OV-3 ovarian, in the test on RXF 393 renal, in the test with OVCAR-3 ovarian, with SW-620 colon, in the test on OVCAR-5 ovarian and with MDA-MB-435 was more than 100 µM in each case. For the same molecule, the TGI in the test with HCT-15 colon was more than 100 µM; with MOLT-4 leukemia, 24.6 µM; in the test with 786-0 renal it was more than 100 µM.
As for `O=c1[nH]c2ccccc2c(O)c1Cc1ccccc1`, the TGI with RXF 393 renal, in the test on OVCAR-3 ovarian, in the test with SW-620 colon, in the test on OVCAR-5 ovarian, with MDA-MB-435 and in the test with HCT-15 colon was more than 100 µM each time. Further, the TGI in the test on SNB-75 CNS, in the test on MOLT-4 leukemia and in the test with 786-0 renal was more than 100 µM throughout.
For `Cn1c(-c2ccc(-c3cc(-c4cccs4)c(-c4cccs4)n3C)cc2)cc(-c2cccs2)c1-c1cccs1`, the TGI in the test with SK-OV-3 ovarian, in the test with RXF 393 renal, in the test with SW-620 colon, in the test with MDA-MB-435, with HCT-15 colon and in the test on SNB-75 CNS was more than 100 µM in each case. In addition, the TGI in the test with MOLT-4 leukemia and with 786-0 renal was more than 100 µM each time.
In the case of `CN(C)CN1CSC(=S)N(CN(C)C)C1`, the TGI in the test on RXF 393 renal, in the test on OVCAR-3 ovarian, with SW-620 colon, with OVCAR-5 ovarian, in the test with MDA-MB-435 and in the test with HCT-15 colon was more than 100 µM throughout. In addition, the TGI in the test on SNB-75 CNS was more than 100 µM; in the test with MOLT-4 leukemia, 92.4 µM; in the test with 786-0 renal, more than 100 µM.
